# In patent US9446127B2, “Compositions including androgen receptor degradation (ARD) enhancers and methods of prophylactic or therapeutic treatment of skin disorders and hair loss” (AndroScience Corporation, priority 2007, dated 2016):
# Columns and labels:
# LNCaP tumor = test: LNCaP xenograft tumor growth in nude mice; assay type: in vivo; conditions: 100 mg/kg/day ip three times per week, 7 weeks
# Method: In the related in vivo studies, LNCaP human prostate tumor cells are xenografted into nude mice by subcutaneous injection (2×10^6 per site). Mice are subsequently treated, by intraperitoneal injection, with either the vehicle solution as control or the test compounds (ASC-J9 at a dose of 100 milligrams per kilogram body weight), three times a week for 7 weeks. Tumor volume is measured twice a week over the next 7 weeks. […] Data in FIG. 12 show two nude mice received xenografted LNCaP tumor and one treated with vehicle solution (left) and the other with ASC-J9 (right). A significant reduction in tumor size and PSA content in plasma were detected in animal received ASC-J9 treatment. Such results can be taken as a strong indication that the suppression of AR activity and the resulting reduction of tumor growth induced by AR-degrading compounds such as ASC-J9, may be translated into a practical use for treating or preventing diseases and disorders related to AR activity, such as prostate and other cancers.
# Two million LNCaP tumor cells were inoculated, subcutaneously, into the left flank of nude mice. In the experimental animals, the nude mice were give an intraperitoneal (ip) injection of compound ASC-J9 at 100 mg/kg/day three times per week or with vehicle control only. After 7 weeks of treatment the tumors were excised, weighed and compared. […] In addition, PSA (prostate specific antigen) level in plasma from animal treated with ASC-J9 reduced 90% (reduce from 57.0 ng/ml to 7.6 ng/ml).
# androgen receptor (AR) = target: T1, androgen receptor (AR) (Homo sapiens, UniProt P10275); test: Specificity Western blot in T47D cell lysates, AR; assay type: cell-based; conditions: 5 or 10 micromolar, presence or absence of estrodial (E2)
# T1 construct: Incubating T47D cells with ASC-J9 (5 or 10 micromolar) in the presence or absence of estrodial (E2) decreased the cellular concentrations of AR; endogenous in cells; host or cells: T47D
# T1 sequence (P10275 1-920): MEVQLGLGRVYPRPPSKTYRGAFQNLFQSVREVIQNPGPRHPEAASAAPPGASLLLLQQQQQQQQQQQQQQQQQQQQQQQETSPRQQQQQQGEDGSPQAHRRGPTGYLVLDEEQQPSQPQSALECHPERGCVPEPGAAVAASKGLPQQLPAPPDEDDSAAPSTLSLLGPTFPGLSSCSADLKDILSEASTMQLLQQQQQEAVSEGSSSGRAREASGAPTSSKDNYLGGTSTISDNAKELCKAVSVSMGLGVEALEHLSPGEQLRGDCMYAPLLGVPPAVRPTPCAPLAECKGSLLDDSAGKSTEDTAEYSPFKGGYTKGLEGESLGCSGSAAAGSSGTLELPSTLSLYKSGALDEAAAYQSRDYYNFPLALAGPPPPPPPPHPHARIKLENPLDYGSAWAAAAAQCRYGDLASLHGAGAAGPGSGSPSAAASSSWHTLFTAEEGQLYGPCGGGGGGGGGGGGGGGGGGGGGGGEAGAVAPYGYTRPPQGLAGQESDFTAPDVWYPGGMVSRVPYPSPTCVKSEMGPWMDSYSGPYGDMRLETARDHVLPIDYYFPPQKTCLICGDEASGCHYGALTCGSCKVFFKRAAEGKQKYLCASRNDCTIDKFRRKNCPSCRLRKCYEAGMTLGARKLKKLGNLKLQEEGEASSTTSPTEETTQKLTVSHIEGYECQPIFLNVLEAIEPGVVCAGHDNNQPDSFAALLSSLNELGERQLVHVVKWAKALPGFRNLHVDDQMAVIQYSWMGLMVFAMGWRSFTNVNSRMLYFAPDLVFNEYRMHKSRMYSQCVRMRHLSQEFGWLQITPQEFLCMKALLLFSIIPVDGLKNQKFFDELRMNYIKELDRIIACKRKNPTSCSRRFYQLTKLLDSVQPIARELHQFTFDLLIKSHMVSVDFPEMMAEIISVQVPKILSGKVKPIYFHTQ
# Method: Human prostate cancer LNCaP cells and T47D cells were plated at a density of 7×10^5 cells per 60 millimeter tissue culture dish in […] medium containing 10% FBS. The medium was changed to RPMI or DME medium containing 10% charcoal-stripped serum 24 hours later to deplete cellular androgens or estrogens. After another 24 hours, treatment with the test compounds began. The test dose of ASC-J9 was 1, and 5 and micromolar. LNCap cells also received dihydrotestosterone (DHT) (3 nanomolar). Control cells received a corresponding amount of the vehicle, dimethylsulfoxide (DMSO) (<0.04%) for an equivalent exposure time. Cells were incubated with ASC-J9 for 24 hours, and were lysed in 250 microliters of 1×SDS/PAGE loading buffer. Approximately 40 micrograms of total cellular protein was loaded in each lane of a pre-cast gel (NuPAGE, Invitrogen). Protein separation and transfer were performed following the manufacturer's instructions.
# LNCaP cells = test: LNCaP cell growth assay (cell count); assay type: cell-based, human; conditions: 5 μM
# Method: LNCaP cells express an endogenous mutant AR that is found in prostate cancer patients. This clinically relevant cell model was used to study ASC-J9's effect in suppressing prostate cancer cell growth. Cells were plated, at a density of approximate 6.5×10^4 cells/well, into 6-well tissue culture dishes. Two days later, the complete medium was aspired and 10% charcoal/dextran-treated (hormone depleted) serum-containing medium was added. Test compound, ASC-J9 was then added to the medium at a final concentration of 5 μM with or without 1 nM of DHT. For vehicle control, the same amount of DMSO was added into the medium. For the subsequent 5 days, the medium was aspired once per day, and replaced with fresh medium containing test compound and/or DHT. At designated times, a portion of cells was harvested by trypsinization, and cell count was performed using a hemacytometer.
smiles,measurement,setting,value
"COc1ccc(C=CC(=O)C=C(O)C=Cc2ccc(OC)c(OC)c2)cc1OC [ASC-J9, 5-hydroxy-1,7-bis(3,4-dimethoxyphenyl)-1,4,6-heptatrien-3-one]",reduction of PSA level in plasma,LNCaP tumor,90%
same,reduction in tumor size,LNCaP tumor; vs vehicle control,75%
same,PSA (prostate specific antigen) level in plasma,LNCaP tumor; reduced from 57.0 ng/ml,7.6 ng/mL
same,tumor weight,LNCaP tumor; vehicle control 0.694 g,0.172 g
same,cellular concentration of AR,androgen receptor (AR),decreased
same,LNCaP cell growth in the presence of DHT,"LNCaP cells; 1 nM DHT, 5 days",good potency to decrease LNCaP cell growth
same,viable cells,LNCaP cells; end of 5-day incubation,only a minimal number of viable cells
same,cell number per well,"LNCaP cells; without DHT, starting from Day 2, vs vehicle control",marked decrease in cell number
